Source: US20190117616A1, “METHOD FOR REGULATING KDM4A, KDM4B, AND KDM4C ACTIVITY” (National Tsing Hua University, priority 2017, published 2019)

Experiments:
KDM4B = target: T1, KDM4B (Homo sapiens, UniProt O94953); assay: KDM4B enzymatic inhibition (residual activity, IC50, kinetics); type: biochemical; conditions: for Inhibitory effects of Myricetin analogues against KDM4B activity: Table 1 (not given), 100 μM compounds
T1 sequence (O94953 1-1096): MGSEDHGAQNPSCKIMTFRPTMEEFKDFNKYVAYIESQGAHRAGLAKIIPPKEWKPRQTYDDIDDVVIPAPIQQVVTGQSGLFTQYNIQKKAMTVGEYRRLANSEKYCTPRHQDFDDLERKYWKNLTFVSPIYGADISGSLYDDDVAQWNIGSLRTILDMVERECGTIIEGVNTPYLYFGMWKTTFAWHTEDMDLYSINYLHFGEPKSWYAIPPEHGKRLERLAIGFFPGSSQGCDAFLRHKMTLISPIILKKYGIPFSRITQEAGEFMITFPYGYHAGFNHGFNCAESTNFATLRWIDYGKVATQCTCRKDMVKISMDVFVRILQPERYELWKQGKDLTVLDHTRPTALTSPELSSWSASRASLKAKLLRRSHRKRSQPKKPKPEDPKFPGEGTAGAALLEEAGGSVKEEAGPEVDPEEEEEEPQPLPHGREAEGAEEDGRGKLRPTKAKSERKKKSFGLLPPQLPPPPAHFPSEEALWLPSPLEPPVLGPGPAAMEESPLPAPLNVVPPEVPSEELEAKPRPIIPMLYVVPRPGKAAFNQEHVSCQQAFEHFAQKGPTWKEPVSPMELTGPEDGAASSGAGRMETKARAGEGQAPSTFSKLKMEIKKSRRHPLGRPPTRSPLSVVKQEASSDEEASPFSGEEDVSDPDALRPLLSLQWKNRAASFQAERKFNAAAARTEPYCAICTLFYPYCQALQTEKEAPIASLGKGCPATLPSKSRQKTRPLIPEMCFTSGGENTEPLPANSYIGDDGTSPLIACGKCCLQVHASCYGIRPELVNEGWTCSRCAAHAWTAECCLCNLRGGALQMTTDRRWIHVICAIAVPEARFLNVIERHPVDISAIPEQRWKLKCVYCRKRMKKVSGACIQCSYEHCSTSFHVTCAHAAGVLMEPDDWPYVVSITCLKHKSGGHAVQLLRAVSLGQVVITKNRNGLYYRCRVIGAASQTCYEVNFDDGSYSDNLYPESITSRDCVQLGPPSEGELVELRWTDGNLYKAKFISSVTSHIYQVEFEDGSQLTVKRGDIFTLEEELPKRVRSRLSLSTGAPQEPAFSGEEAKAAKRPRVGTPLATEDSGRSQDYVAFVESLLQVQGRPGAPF

[1] = literature; cited from earlier work
herpes virus = conditions: literature; cited from earlier work
JMJD2E/KDM4E = target: T2, JMJD2E/KDM4E (Homo sapiens, UniProt B2RXH2); conditions: in vitro, literature; cited from earlier work
T2 sequence (B2RXH2 1-506): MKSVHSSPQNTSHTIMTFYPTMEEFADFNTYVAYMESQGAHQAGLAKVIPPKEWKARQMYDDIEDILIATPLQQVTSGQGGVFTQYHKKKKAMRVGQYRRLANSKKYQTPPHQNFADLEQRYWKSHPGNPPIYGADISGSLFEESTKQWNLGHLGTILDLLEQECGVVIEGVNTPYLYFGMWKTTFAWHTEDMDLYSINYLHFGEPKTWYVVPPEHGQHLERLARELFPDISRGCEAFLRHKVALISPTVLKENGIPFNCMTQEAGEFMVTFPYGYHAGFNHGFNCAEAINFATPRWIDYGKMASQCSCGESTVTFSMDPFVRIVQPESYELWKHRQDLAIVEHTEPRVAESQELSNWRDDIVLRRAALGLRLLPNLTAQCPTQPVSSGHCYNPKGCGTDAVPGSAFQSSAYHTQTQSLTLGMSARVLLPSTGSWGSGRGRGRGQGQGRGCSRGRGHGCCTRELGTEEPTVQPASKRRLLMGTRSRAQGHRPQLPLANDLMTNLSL

PZ-HPV-7 cells = assay: MTT assay, immortalized normal PZ-HPV-7; type: cell-based; conditions: different concentrations over 4 days
Description: (§1) Whether Myricetin blocked cell growth of AR+ cells was next evaluated.

C4-2B cells [2] = assay: MTT cell proliferation assay, C4-2B; type: cell-based; conditions: different concentrations over 4 days
Description: as §1

KDM4C [3] = target: T3, KDM4C (Homo sapiens, UniProt Q9H3R0); assay: H3 demethylation by bacteria-expressed KDM4C, western blot; type: biochemical; conditions: 100 μM inhibitor, 10 μM enzyme, 5 μM H3, 37° C., 30 min
T3 sequence (Q9H3R0 1-1056): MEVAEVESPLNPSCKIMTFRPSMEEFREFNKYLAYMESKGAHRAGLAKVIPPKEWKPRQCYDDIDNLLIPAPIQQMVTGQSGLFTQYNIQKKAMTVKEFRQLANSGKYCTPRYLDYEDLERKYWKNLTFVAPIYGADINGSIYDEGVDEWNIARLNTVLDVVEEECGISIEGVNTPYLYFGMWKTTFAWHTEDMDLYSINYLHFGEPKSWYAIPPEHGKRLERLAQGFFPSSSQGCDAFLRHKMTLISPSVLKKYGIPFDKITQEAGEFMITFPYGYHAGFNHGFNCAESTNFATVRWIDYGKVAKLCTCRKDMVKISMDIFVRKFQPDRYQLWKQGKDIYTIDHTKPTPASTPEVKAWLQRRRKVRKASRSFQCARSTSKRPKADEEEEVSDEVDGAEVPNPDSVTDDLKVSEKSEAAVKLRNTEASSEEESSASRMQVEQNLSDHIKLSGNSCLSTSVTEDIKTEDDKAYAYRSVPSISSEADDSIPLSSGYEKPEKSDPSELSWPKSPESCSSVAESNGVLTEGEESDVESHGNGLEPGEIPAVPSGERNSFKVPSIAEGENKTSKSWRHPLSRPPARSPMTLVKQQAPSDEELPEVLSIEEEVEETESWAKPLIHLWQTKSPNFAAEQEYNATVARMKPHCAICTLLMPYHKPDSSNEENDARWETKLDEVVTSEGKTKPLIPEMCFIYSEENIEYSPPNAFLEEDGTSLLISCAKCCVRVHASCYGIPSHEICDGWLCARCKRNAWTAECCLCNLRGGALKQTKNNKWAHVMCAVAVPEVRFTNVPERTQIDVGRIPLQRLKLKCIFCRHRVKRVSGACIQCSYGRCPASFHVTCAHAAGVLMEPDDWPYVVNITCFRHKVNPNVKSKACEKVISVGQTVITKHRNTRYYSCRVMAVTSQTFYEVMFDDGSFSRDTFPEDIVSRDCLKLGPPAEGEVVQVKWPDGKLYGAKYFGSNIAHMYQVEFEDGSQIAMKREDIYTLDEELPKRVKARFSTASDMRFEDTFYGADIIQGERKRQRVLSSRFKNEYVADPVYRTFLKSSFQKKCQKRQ

LNCaP cells = assay: MTT cell growth assay, LNCaP; type: cell-based; conditions: different concentrations over 4 days
Description: as §1

KDM4C [4] = target: T3, KDM4C; conditions: toward α-ketoglutarate, FIG. 2A
C4-2B xenografts [5] = assay: C4-2B xenograft tumor growth in nude mice; type: in vivo; conditions: C4-2B xenograft model
[6] = tested on: H3K9me3/H3K36me3 in C4-2B cells; assay: H3K9me3 and H3K36me3 levels in treated C4-2B cells, western blot; type: cell-based; conditions: treated for two days, cell lysates
Description: FIG. 5B: H3K9me3 and H3K36me3 levels in Myricetin-treated C4-2B cells for two days. The H3K9me3 and H3K36me3 signals are detected in cell lysates by western blot analysis.
as §1

C4-2B cells [7] = assay: Cell viability of C4-2B, PLGA-Myricetin versus free Myricetin; conditions: read-out: IC50, cell viability (cytotoxicity) of C4-2B cells
C4-2B cells [8] = tested on: C4-2B cells
C4-2B xenografts [9] = assay: Ki-67 and CD31 immunohistochemistry of xenograft tumor sections; type: in vivo, nude mice; conditions: FIG. 7B
Method: FIG. 7B: Ki-67 and CD31 immunohistochemistry staining of the tumor sections isolated from the xenografts.
The endothelial cell-specific marker CD31 in xenografts was also determined.

For `O=c1c(O)c(-c2ccc(O)c(O)c2)oc2c(O[C@@H]3O[C@H](CO)[C@@H](O)[C@H](O)[C@H]3O)c(O)cc(O)c12` [Gossypin], the “Inhibitory effects of Myricetin analogues against KDM4B activity” value (KDM4B) was “significant inhibitory effects”.
For `COc1cc(-c2oc3cc(O)cc(O)c3c(=O)c2O)ccc1O` [Isorhamnetin], the “Inhibitory effects of Myricetin analogues against KDM4B activity” value (KDM4B) was “significant inhibitory effects”.
In the case of `O=c1c(O)c(-c2ccc(O)cc2)oc2cc(O)cc(O)c12` [Kaempferol], the “Inhibitory effects of Myricetin analogues against KDM4B activity” value (KDM4B) is reported as “significant inhibitory effects”.
For `CN(C)CCCNC(=O)c1ccc(-c2cc(O)c3ncccc3c2)cc1` [ML324], the Cell permeability [1] is listed as “good”, the “In vitro ADME properties” value [1] is listed as “good” and the “KDM4A-dependent herpes virus-mediated replication in infected cells” value (herpes virus) is listed as “blocked”. For the same molecule, the “Inhibitory activity toward JMJD2E/KDM4E” value (JMJD2E/KDM4E) was “submicromolar”.
In the case of `O=c1c(O)c(-c2cc(O)c(O)c(O)c2)oc2cc(O)cc(O)c12` [Myricetin], the “Effect on immortalized normal PZ-HPV-7 line” value (PZ-HPV-7 cells) is reported as “essentially no effect”, the “Cell proliferation of C4-2B” value (C4-2B cells [2]) is reported as “blocked” and the “Demethylation of H3K9me3 by KDM4C” value (KDM4C [3]) is reported as “significantly reduced such an activity”. For the same molecule, the “Cell growth of LNCaP” value (LNCaP cells) was “significantly reduced level of cell growth”, the “Enzymatic inhibitory kinetics, mode (KDM4C)” value (KDM4C [4]) was “competitive mode” and the “Antitumor activity compared with the vehicle control group” value (C4-2B xenografts [5]) was “significant antitumor activity”. For the same molecule, the “H3K9me3 level in C4-2B cells” value [6] was “dose-dependent increased level”, the “H3K36me3 signal in C4-2B cells” value [6] was “relatively comparable signal” and the IC50 (C4-2B cells [7]) was 38.3 µM. For the same molecule, the IC50 (KDM4B) was 1.3 µM, the “Enzymatic inhibitory kinetics, mode (KDM4B)” value (KDM4B; toward α-ketoglutarate, FIG. 2A) was “competitive inhibition mode” and the “Cytotoxic effect alone, compared with enzalutamide alone” value (C4-2B cells [8]) was “better cytotoxic effect”.
In the case of `O=c1c(O)c(-c2ccc(O)c(O)c2)oc2cc(O)cc(O)c12` [Quercetin], the “Inhibitory effects of Myricetin analogues against KDM4B activity” value (KDM4B) is reported as “significant inhibitory effects”.
With `CNC(=O)c1ccc(N2C(=S)N(c3ccc(C#N)c(C(F)(F)F)c3)C(=O)C2(C)C)cc1F` [enzalutamide] the “Antitumor activity compared with the vehicle control group” value (C4-2B xenografts [5]) was “significant antitumor activity”, the “Endothelial cell-specific marker CD31 in xenografts” value (C4-2B xenografts [9]) was “significantly higher level of CD31 was seen in the vehicle group” and the “Expression of proliferation marker Ki-67 in xenografts” value (C4-2B xenografts [9]) was “significantly lower expression”.
